{"source": "patent US10492518B2", "about": "“Blood lipid-lowering composition, method for preparing the same and use thereof” (INFINITUS (CHINA) COMPANY LTD., priority 2018, dated 2019)", "system": "mixed hyperlipidemia model in SD rat", "assay": "Test of the blood lipid-lowering efficacy: serum TC, TG, HDL-C, LDL-C and apo-A1 after 30 days oral administration", "assay_type": "in vivo", "details": "positive control, atorvastatin calcium 0.83 mg/Kg oral, high fat diet SD rats", "experimental": "Experiment object: compositions of examples 1 to 4, single component group (500 mg of echium seed oil), and two positive control groups: fish oil group (180 mg of EPA and 120 mg of DHA in each 1000 mg oil fish, purchased from Amway), and atorvastatin calcium group (each tablet was 20 mg containing 10 mg of active ingredient atorvastatin calcium, purchased from Pfizer Pharmaceutical Co., Ltd.).\nReference was made to the test method of adjunctive blood lipid-lowering function in the Technical specification for health care food inspection and evaluation. The SPF grade male SD rats were chosen as the experimental animals. After the adaptation period, an animal model of mixed hyperlipidemia was established, and the rats were randomly divided into groups according to the TC level.\nThere were three dosage groups, two positive control groups, one blank control group and one model control group. In low-dosage group, the dosage of the test sample was equal to 5 times ([…]) of the recommended amount for human; for the other two dosage groups, the dosages were respectively equal to 10 times (333.33 mg/kg) and 25 times (833.33 mg/kg) of the recommended amount for human. The dosage of the positive control group was equal to 5 times of the recommended amount for human (fish oil: 150 mg/Kg; atorvastatin calcium 0.83 mg/Kg). The blank control group and the model control group were administered with distilled water of the same volume by intragastric gavage. Each of the groups was weighed regularly. 30 days after the administration, blood samples were collected from the rats without fasting, and the serums were separated. TC (total cholesterol), TG (total triglyceride), (high-density lipoprotein cholesterol) and apo-A1 (apolipoprotein A1) were tested. The methods were illustrated in details hereinafter.\nAdaptation period: in a barrier system the rats were fed for regular feed and observed for 5 to 7 days.\nThe rats were randomly divided into 22 groups according to the weight, 6 rats per group. One group of rats was fed with regular feed as the blank control group. The other 21 groups were fed with high fat diet as the model control group. All rats were weighed once a week.\n20 days after the model control groups were fed with high fat diet, blood samples (1 to 1.5 mL of blood from the tail vein) were collected from the rats of the blank control group and the model control group without fasting. After the blood collection, the serum were quickly separated and transferred to a new centrifuge tube, and then cryopreserved at −20° C. for test. ELISA test kits for cholesterol, triglyceride, HDL-cholesterol and LDL-cholesterol were used to test the levels of TC, TG, LDL-C and HDL-C in the rat serum. […]"}
{"smiles": "CC(C)c1c(C(=O)Nc2ccccc2)c(-c2ccccc2)c(-c2ccc(F)cc2)n1CC[C@@H](O)C[C@@H](O)CC(=O)[O-].CC(C)c1c(C(=O)Nc2ccccc2)c(-c2ccccc2)c(-c2ccc(F)cc2)n1CC[C@@H](O)C[C@@H](O)CC(=O)[O-].[Ca+2]", "note": "[Atorvastatin Calcium, atorvastatin calcium]", "values": [{"measurement": "Serum HDL-C, Mean Value ± Standard Deviation", "value": "919.74 ± 150.63", "unit": "µmol/L"}, {"measurement": "Serum LDL-C, Mean Value ± Standard Deviation", "value": "853.24 ± 236.19", "unit": "µmol/L"}, {"measurement": "Serum total cholesterol (TC), Mean Value ± Standard Deviation", "value": "1117.14 ± 171.07", "unit": "µmol/L"}, {"measurement": "Serum triglyceride (TG), Mean Value ± Standard Deviation", "value": "189.71 ± 45.83", "unit": "µmol/L"}]}
